Reference: patent publication US20240287138A1, “CYCLIC PEPTIDES FOR INHIBITING TNF RECEPTOR 1 ACTIVITY” (Merck Sharp & Dohme LLC, priority 2023, published 2024)
pKd: −log10 of the molar value. Numbered stars: 1 amine (or outer) side, 2 acyl side, 3 side chain; on linkers, the order of the positions; unused ones are H or OH. Bridge positions count the residues as written; N and C are the ends. Square brackets hold non-standard residues; d marks the D form. Peptide text beside a SMILES is read from it. Trp(βS-Me,7-OMe) = COc1cccc2c([C@H](C)[C@H](N)C(=O)O)c[nH]c12; Trp(7-Cl) = N[C@@H](Cc1c[nH]c2c(Cl)cccc12)C(=O)O; Phe(4-COOH) = N[C@@H](Cc1ccc(C(=O)O)cc1)C(=O)O; Phe(4-CH2NH2) = NCc1ccc(C[C@H](N)C(=O)O)cc1; X23 = N[C@@H]1CCN([*:1])[C@H](C(=O)[*:2])C1; X1 = O=C([C@@H]1CC[C@H](N[*:1])C1)[*:2]; Nle(5,5-F2) = CC(F)(F)CC[C@H](N)C(=O)O; Pip(4-aza) = O=C(O)[C@@H]1CNCCN1; 4Pal = N[C@@H](Cc1ccncc1)C(=O)O; NMeE = CN[C@@H](CCC(=O)O)C(=O)O; αMeS = C[C@](N)(CO)C(=O)O; Nle = CCCC[C@H](N)C(=O)O; Sar = CNCC(=O)O

Tests used:
[1] = target: T1, human TNFR1 extracellular domain (ECD) protein (Homo sapiens, UniProt P19438); assay: SPR binding affinity to captured human TNFR1 ECD
T1 construct: HRV 3C protease cleavage site (C); 6His (C, cleaved yes); made in house; host or cells: Sf21 insect cells (baculovirus), secreted
T1 sequence (P19438 30-211): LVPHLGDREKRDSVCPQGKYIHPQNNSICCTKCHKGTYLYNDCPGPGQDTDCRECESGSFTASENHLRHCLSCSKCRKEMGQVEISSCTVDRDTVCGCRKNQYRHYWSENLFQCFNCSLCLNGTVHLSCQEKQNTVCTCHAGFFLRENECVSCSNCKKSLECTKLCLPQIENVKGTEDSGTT
Procedure, shortened: (§1)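 Peptides are tested against captured biotin-tagged human TNFR1 ECD, with parallel TNFR2 ECD binding to check selectivity. Buffer: 10 mM HEPES pH 7.4, 150 mM NaCl, 3 mM EDTA, 0.05% P20, 2% DMSO.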

human TNFR2 ECD protein = target: T2, human TNFR2 ECD protein (Homo sapiens, UniProt P20333); assay: SPR off-target binding (selectivity) to human TNFR2 ECD
T2 construct: HRV 3C protease cleavage site (C); 6His (C, cleaved yes); made in house; host or cells: Sf21 insect cells (baculovirus), secreted
T2 sequence (P20333 23-257): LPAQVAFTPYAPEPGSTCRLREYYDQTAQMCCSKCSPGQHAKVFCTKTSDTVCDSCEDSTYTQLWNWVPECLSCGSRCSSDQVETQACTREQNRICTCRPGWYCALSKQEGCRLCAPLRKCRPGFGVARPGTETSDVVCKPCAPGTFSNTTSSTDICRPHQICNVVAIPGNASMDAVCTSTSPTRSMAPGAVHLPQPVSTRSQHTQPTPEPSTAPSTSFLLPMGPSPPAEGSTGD
Procedure, shortened: as §1

`CCCC[C@@H]1NC(=O)[C@@H]2CC[C@@H](C2)NC(=O)[C@H]([C@@H](C)c2c[nH]c3c(OC)cccc23)NC(=O)CN(C)C(=O)[C@H](Cc2ccc(CN)cc2)NC(=O)[C@H](Cc2ccc(C(=O)O)cc2)NC(=O)[C@](C)(CO)NC(=O)[C@H](Cc2c[nH]c3c(Cl)cccc23)NC(=O)[C@H](Cc2ccncc2)NC(=O)[C@H](CC(N)=O)NC(=O)[C@H](CCC(=O)O)N(C)C(=O)[C@H](Cc2c[nH]c3ccccc23)NC(=O)[C@@H]2CNCCN2C(=O)[C@H](Cc2ccncc2)NC1=O` [SEQ ID NO. 269] (cyclo([4Pal][Trp(7-Cl)][αMeS][Phe(4-COOH)][Phe(4-CH2NH2)][Sar][Trp(βS-Me,7-OMe)][X1][Nle][4Pal][Pip(4-aza)]W[NMeE]N)) was tested, and the pKd [1] was 10.00 and the pKd (human TNFR2 ECD protein) was under 6.00.
Molecule `CCCC[C@@H]1NC(=O)CSC[C@@H](C(N)=O)NC(=O)[C@H]([C@@H](C)c2c[nH]c3c(OC)cccc23)NC(=O)CN(C)C(=O)[C@H](Cc2ccc(O)cc2)NC(=O)[C@H](Cc2ccc(C(=O)O)cc2)NC(=O)[C@](C)(CO)NC(=O)[C@H](Cc2c[nH]c3c(Cl)cccc23)NC(=O)[C@H](Cc2ccncc2)NC(=O)[C@H](CC(N)=O)NC(=O)[C@H](CCC(=O)O)N(C)C(=O)[C@H](Cc2c[nH]c3ccccc23)NC(=O)[C@@H]2C[C@H](N)CCN2C(=O)[C@H](Cc2ccncc2)NC1=O` [SEQ ID NO. 271] ({CH2CO}-[Nle][4Pal][X23]W[NMeE]N[4Pal][Trp(7-Cl)][αMeS][Phe(4-COOH)]Y[Sar][Trp(βS-Me,7-OMe)]C-NH2; thioether N-14) has a pKd [1] of 9.55 and a pKd (human TNFR2 ECD protein) of under 6.00.
Work on `COc1cccc2c([C@H](C)[C@@H]3NC(=O)CN(C)C(=O)[C@H](Cc4ccc(O)cc4)NC(=O)[C@H](Cc4ccc(C(=O)O)cc4)NC(=O)[C@](C)(CO)NC(=O)[C@H](Cc4c[nH]c5c(Cl)cccc45)NC(=O)[C@H](Cc4ccncc4)NC(=O)[C@H](CC(N)=O)NC(=O)[C@H](CCC(=O)O)N(C)C(=O)[C@H](Cc4c[nH]c5ccccc45)NC(=O)[C@@H]4CNCCN4C(=O)[C@H](Cc4ccncc4)NC(=O)[C@H](CCC(C)(F)F)NC(=O)[C@@H]4CC[C@@H](C4)NC3=O)c[nH]c12` [SEQ ID NO. 275] (cyclo([4Pal][Trp(7-Cl)][αMeS][Phe(4-COOH)]Y[Sar][Trp(βS-Me,7-OMe)][X1][Nle(5,5-F2)][4Pal][Pip(4-aza)]W[NMeE]N)) yielded a pKd [1] of 9.52 and a pKd (human TNFR2 ECD protein) of under 6.00.
